According to US7309719B1, “Stabilized pharmaceutical preparation of gamma-aminobutyric acid derivatives and process for preparing the same” (Warner Lambert Company, LLC, priority 1998, dated 2007):

Tests used:
[1] = Dehydration reaction (lactam formation) in a dried state at 105° C.; assay type: physicochemical; conditions: 105° C. over 2-3 hours
From the text: In other words, in the 4-amino-3-substituted-butanoic acid derivative wherein the substituent at the 3-position thereof has a bulky structure, the dehydration reaction could easily be brought about between the amino group and the carboxyl group within the molecule.

[2] = Stability of baclofen granular powders (wet admixture), dehydrated condensate content by HPLC (Example 11); assay type: physicochemical; conditions: solid
Description: In this Example and the following Example, a content of the dehydrated condensate thus formed is expressed in terms of % by weight, based on baclofen.
In this Example, the stabilization of baclofen according to the wet admixture with the amino acid was tested for the following Samples (ag) and (ah) of baclofen.
1) Sample (ag) was prepared by wetting 200 mg of baclofen crystals with 0.1 mL of water, forming granular powders by means of a mortar and then drying.
2) Sample (ah) was prepared by wetting 200 mg of baclofen crystals with 0.1 mL of a 2% aqueous solution of L-isoleucine, forming granular powders by means of a mortar and then drying. • Samples (ag) and (ah) prepared as described above and untreated baclofen crystals were stored under the conditions as defined in the following Table 13 and then a content of the dehydrated condensate formed in each of the samples was determined by means of HPLC.

[3] = Stability of compacted pregabalin powders, dehydrated condensate content by HPLC (Example 9); assay type: physicochemical; conditions: solid
Description: 3) Sample (v) was prepared by dissolving 1 g of pregabalin crystals and 1.47 g of L-valine in water to make up a total volume of 50 mL. • Samples (t), (u) and (v) prepared as described above were stored under the conditions as defined in the following Table 10 and then a content of the dehydrated condensate formed in each of the aqueous solutions was determined by means of HPLC. In this Example and the following Examples, a content of the dehydrated condensate formed is expressed in terms of % by weight, based on pregabalin.
This Example will illustrate the preparation of a stabilized solid pharmaceutical preparation of pregabalin by the addition of the amino acid to pregabalin according to the dry admixture.
1) 1 g of pregabalin crystals was prepared to powdery Sample (aa) in a compacted state by means of a mortar.
2) 1 g of pregabalin crystals was blended with 10 mg of magnesium stearate by means of a mortar to prepare mixed powdery Sample (ab) in a compacted state.
3) 1 g of pregabalin crystals was blended with 30 mg of talc by means of a mortar to prepare mixed powdery Sample (ac) in a compacted state.
4) 1 g of pregabalin crystals was blended with 30 mg of L-leucine by means of a mortar to prepare mixed powdery Sample (ad) in a compacted state. • Samples (aa), (ab), (ac) and (ad) prepared as described above and untreated pregabalin crystals were stored under the conditions as defined in the following Table 11 and then a content of the dehydrated condensate formed in each of the samples was determined by means of HPLC.

[4] = Stabilizing effect of amino acids on 4-amino-3-substituted-butanoic acid derivatives

## NCC(O)CC(=O)O (stereo not shown) [4-amino-3-hydroxy-butanoic acid]
[1]
  dehydration reaction (formation of the corresponding lactam form): not brought about

## NCC(CC(=O)O)c1ccc(Cl)cc1 (stereo not shown) [Untreated Baclofen]
[2]; 60° C./1 week (sealed)
  content of the dehydrated condensate: 0.36 % by weight, based on baclofen
[2]; 60° C./2 weeks (sealed)
  content of the dehydrated condensate: 0.57 % by weight, based on baclofen
[2]; 60° C./3 weeks (sealed)
  content of the dehydrated condensate: 0.70 % by weight, based on baclofen
[2]; When initiated
  content of the dehydrated condensate: 0.10 % by weight, based on baclofen

## CC(C)CC(CN)CC(=O)O (stereo not shown) [Untreated Pregabalin, 5-methyl-3-aminomethyl-hexanoic acid]
[3]; 60° C./2 weeks (sealed)
  content of the dehydrated condensate: 0.001 % by weight, based on pregabalin
[3]; 80° C./1 week (sealed)
  content of the dehydrated condensate: 0.006 % by weight, based on pregabalin
[3]; When initiated
  content of the dehydrated condensate: <0.001 % by weight, based on pregabalin

## O=C(O)[C@@H]1C[C@@H](O)CN1 [hydroxyproline]
[4]
  stabilizing effect as stabilizer for a 4-amino-3-substituted-butanoic acid derivative: weak stabilizing effect

## NCCCC(=O)O [γ-aminobutyric acid]
[1]
  dehydration reaction (formation of the corresponding lactam form): not brought about
